Measurements as given in patent publication US4683242A, “Transdermal treatment for pain and inflammation with 2-amino-3-aroylbenzeneacetic acids, salts and esters” (A. H. Robins Company, Incorporated, priority 1985, dated 1987).
Where a name gives a salt, the structure may show the parent alone.

Assays:
[1] = test system: Carrageenan-Induced Rat-Paw Edema; assay: Carrageenan Induced Rat-Paw Edema, dermal application (antiinflammatory); format: in vivo; settings: for Measurement of Edema at 3 hr.: 4 hr pretreatment; for Activity applied dermally compared with orally for a given dose: dermal vs oral, Formula B cream (pH=3.5) for Example 74
Protocol: On the day prior to the test, an area of about 1"×1" of the lower back just above the tail of each of the rats was shaved and depilated with the commercially available hair removal preparation--Nair®. The rats were returned to the vivarium for feed and water.
The following day each rat was weighed and the volume of the left hind limb recorded. The rats were randomized into groups. Creams were applied in the following manner: 0.2 ml of the cream vehicle (control--no active agent) or formulation containing active ingredient was rubbed thoroughly onto the shaved depilated area of the rat's back for 10-15 seconds. The rats were immediately placed into plexiglass observation cylinders to restrict movement so as to prohibit accidental oral ingestion of the cream. The rats were then placed in a quiet room for 4 hr. Four hours after dosing, 0.1 ml of 1% carrageenan was injected into the left hind limb of each rat. The rats were returned to their observation cylinders and placed in the quiet room for an additional 3 hr time, after which the volume of the left hind limb was determined. The degree of edema was determined by subtracting limb volume at 0 time from the volume determined 3 hr after carrageenan injection. Two tail Dunnett's t-tests were used to compare the edema of the treated groups with the appropriate controls (Dunnet, C. W. (1955); J. AM. STAT. ASSOC. 50: 1096-1121).
Several compounds of Formula I were mixed with the creams as prepared above so as to obtain cream containing 3.2 weight percent of each compound based on the weight of free acid or the ester. Rats in groups of 6 (randomized) were each treated with 0.2 ml of the cream containing the compound using the foregoing Carrageenan Induced Rat-Paw Edema test. The control rats were treated with cream having no test compound.
In addition, one preferred compound was tested further using the foregoing Carrageenan-Induced Rat-Paw Edema test at various concentrations in the cream of Formula B (pH=3.5).

[2] = test system: Acetylcholine Induced Abdominal Constriction; assay: Acetylcholine Induced Abdominal Constriction Test in Mice, dermal application (analgetic); format: in vivo, mouse; settings: Formula A cream pH = 7.0, 4 hr pretreatment
Protocol: Active agent was incorporated into the cream described under Formual A above (pH=7.0) at various concentrations calculated on a free acid basis.
Mice were prepared for the test by shaving an area measuring 3/4"×3/4" on their backs behind their heads and then depilating with Nair®, a cosmetic hair remover. The mice were given free access to feed and water prior to the experiment. On the following day the mice were weighed and fitted with a cardboard collar (13/4"×13/4" with a 1/2" hole in the center) around the neck to prevent ingestion of applied compounds. The mice were randomized into groups of 10 using random tables generated by the IBM scrambler. A table of random permutations of blocks of order 3 was used to select the control and treated groups. The randomized mice were fed and placed in individual observation cages 1 hr prior to application of 50 microliters of the cream (by rubbing onto the skin for approximately 10 seconds).
The mice acting as controls were treated with cream having no test compound in it. Four hours after the application of the cream to the depilated area, acetylcholine bromide was injected intraperitoneally at 6 mg/kg (10 ml/kg in saline) with a plastic syringe with a 5/8 inch, 25-gauge disposable needle. Each mouse was immediately placed under an inverted 1 liter beaker and observed for 3 minutes for the presence of abdominal constriction. If no abdominal constriction was observed during this period, the response was considered blocked. ED50 and 95% confidence limits were determined by computer using a probit analysis method. Ten mice were used at each concentration, including controls.
The following results in Table 5 were obtained using the foregoing method using the cream of Formula A (pH=7.0) as described above having mixed therein the compound of Example 74 in comparison to controls wherein no test compound was present.

[3] = quotation from Remington's, 16th Ed., page 1523; cited from earlier work
[4] = Table 3, Formula A cream, pH = 7.0, 0.2 ml, 3.2% by weight (free acid basis or ester), dermal
[5] = Table 3, Formula A cream, pH = 7.0, 0.2 ml, 3.2% by weight, dermal, p = <0.05
[6] = Table 4, first series, Formula B pH 3.5, 0.032 % (W/W), 0.37 mg/kg dermal
[7] = Table 4, second series, Formula B pH 3.5, 0.01 % (W/W), 0.10 mg/kg dermal
[8] = Table 4, second series, Formula B pH 3.5, 0.032 % (W/W), 0.32 mg/kg dermal
[9] = Table 4, second series, Formula B pH 3.5, 0.10 % (W/W), 0.94 mg/kg dermal

Nc1c(CC(=O)O)cccc1C(=O)c1ccc(I)cc1 [Example 57, 2-Amino-3-(4-iodobenzoyl)benzeneacetic acid, sodium salt, hydrate [4:1]]
Measurement of Edema at 3 hr. [1, 4]: 0.40 ± 0.14 ml ± S.D.
% Change (edema vs control) [1, 5]: -57%

Nc1c(CC(=O)O)cccc1C(=O)c1ccc(Br)cc1 [Example 74, 2-Amino-3-(4-bromobenzoyl)benzeneacetic acid, sodium salt, sesquihydrate]
Measurement of Edema at 3 hr. ([1]; Table 3, Formula B cream, pH = 3.5, 0.2 ml, 3.2% by weight (free acid basis), dermal): 0.48 ± 0.17 ml ± S.D.
Measurement of Edema at 3 hr. ([1]; Table 3, Formula B cream, pH = 3.5, 0.2 ml, 3.2% by weight (free acid basis), dermal, sodium salt, sesquihydrate): 0.38 ± 0.18 ml ± S.D.
3 Hr. Edema [1, 6]: 0.73 ± 0.33 ml ± S.D.
% Change (edema vs control) [1, 6]: -26%
% Change (edema vs control) ([1]; Table 4, first series, Formula B pH 3.5, 0.10 % (W/W), 1.1 mg/kg dermal): -57%
3 Hr. Edema ([1]; Table 4, first series, Formula B pH 3.5, 0.10 % (W/W), 1.1 mg/kg dermal, p < 0.05): 0.42 ± 0.21 ml ± S.D.
% Change (edema vs control) ([1]; Table 4, first series, Formula B pH 3.5, 0.32 % (W/W), 3.7 mg/kg dermal): -62%
3 Hr. Edema ([1]; Table 4, first series, Formula B pH 3.5, 0.32 % (W/W), 3.7 mg/kg dermal, p < 0.05): 0.37 ± 0.19 ml ± S.D.
% Change (edema vs control) ([1]; Table 4, first series, Formula B pH 3.5, 1.0 % (W/W), 11.9 mg/kg dermal): -57%
3 Hr. Edema ([1]; Table 4, first series, Formula B pH 3.5, 1.0 % (W/W), 11.9 mg/kg dermal, p < 0.05): 0.42 ± 0.10 ml ± S.D.
% Change (edema vs control) ([1]; Table 4, first series, Formula B pH 3.5, 3.16 % (W/W), 36.5 mg/kg dermal): -61%
3 Hr. Edema ([1]; Table 4, first series, Formula B pH 3.5, 3.16 % (W/W), 36.5 mg/kg dermal, p < 0.05): 0.38 ± 0.18 ml ± S.D.
3 Hr. Edema [1, 7]: 0.88 ± 0.33 ml ± S.D.
% Change (edema vs control) [1, 7]: +3%
3 Hr. Edema [1, 8]: 1.05 ± 0.22 ml ± S.D.
% Change (edema vs control) [1, 8]: +22%
3 Hr. Edema [1, 9]: 0.55 ± 0.20 ml ± S.D.
% Change (edema vs control) [1, 9]: -36%
% Change (edema vs control) ([1]; Table 4, second series, Formula B pH 3.5, 0.32 % (W/W), 3.0 mg/kg dermal): -52%
3 Hr. Edema ([1]; Table 4, second series, Formula B pH 3.5, 0.32 % (W/W), 3.0 mg/kg dermal, p < 0.05): 0.42 ± 0.15 ml ± S.D.
% Change (edema vs control) ([1]; Table 4, second series, Formula B pH 3.5, 1.0 % (W/W), 10.3 mg/kg dermal): -57%
3 Hr. Edema ([1]; Table 4, second series, Formula B pH 3.5, 1.0 % (W/W), 10.3 mg/kg dermal, p < 0.05): 0.37 ± 0.05 ml ± S.D.
% Change (edema vs control) ([1]; Table 4, second series, Formula B pH 3.5, 3.16 % (W/W), 31.5 mg/kg dermal): -44%
3 Hr. Edema ([1]; Table 4, second series, Formula B pH 3.5, 3.16 % (W/W), 31.5 mg/kg dermal, p < 0.05): 0.48 ± 0.17 ml ± S.D.
Activity against edema compared with indomethacin applied dermally or orally ([1]; comparative study, Example 74 applied dermally to rats): more active against the Edema than indomethacin applied dermally or orally
Activity applied dermally compared with orally for a given dose ([1]; comparative study): about as active applied dermally as it was orally for a given dose
% Block ([2]; 0.01 wt. % in 50 μl cream): 0%
% Block ([2]; 0.032 wt. % in 50 μl cream): 20%
% Block ([2]; 0.10 wt. % in 50 μl cream): 60%
% Block ([2]; 0.32 wt. % in 50 μl cream): 80%
% Block ([2]; 1.0 wt. % in 50 μl cream): 80%
% Block ([2]; 3.16 wt. % in 50 μl cream): 90%
ED50 as % Concentration of Agent in Cream (95% Confidence Limits) ([2]; probit analysis, 95% confidence limits (0.06-0.29)): 0.128%

O=C([O-])c1ccccc1O.[Na+] [sodium salicylate]
Skin permeation compared with salicylic acid [3]: permeates poorly compared with salicylic acid

CCOC(=O)Cc1cccc(C(=O)c2ccccc2)c1N [Example 5, 2-Amino-3-benzoylbenzeneacetic acid, ethyl ester]
Measurement of Edema at 3 hr. [1, 4]: 0.27 ± 0.18 ml ± S.D.
% Change (edema vs control) [1, 5]: -71%

CCOC(=O)Cc1cccc(C(=O)c2ccc(Br)cc2)c1N [Example 69, 2-Amino-3-(4-bromobenzoyl)benzeneacetic acid, ethyl ester]
Measurement of Edema at 3 hr. [1, 4]: 0.50 ± 0.20 ml ± S.D.
% Change (edema vs control) [1, 5]: -46%

COc1ccc2c(c1)c(CC(=O)O)c(C)n2C(=O)c1ccc(Cl)cc1 [indomethacin, reference compound]
Activity applied dermally compared with orally for a given dose ([1]; comparative study): markedly less active when applied dermally than when given orally for a given dose

CSc1ccc(C(=O)c2cc(F)cc(CC(=O)O)c2N)cc1 [Example 19, 2-Amino-3-[(4-methylthio)benzoyl]-5-fluorobenzeneacetic acid, sodium salt]
Measurement of Edema at 3 hr. [1, 4]: 0.55 ± 0.14 ml ± S.D.
% Change (edema vs control) [1, 5]: -41%

Cc1ccc(C(=O)c2cc(Cl)cc(CC(=O)O)c2N)cc1 [Example 55, 2-Amino-3-(4-methylbenzoyl)-5-chlorobenzeneacetic acid, sodium salt, hydrate [4:3]]
Measurement of Edema at 3 hr. [1, 4]: 0.33 ± 0.20 ml ± S.D.
% Change (edema vs control) [1, 5]: -64%
